Earlier results, collected in patent US8097457B2, “Liquid crystalline substrates for culturing cells” (Wisconsin Alumni Research Foundation, priority 2005, dated 2012).

Tested on: live cells
Settings: contacted with live cells for short periods of time

SMILES: CCCCCc1ccc(-c2ccc(C#N)cc2)cc1 [5CB, 4′-pentyl-4-cyanobiphenyl]
- toxicity to live cells: cause cell death
